Results as given in patent publication US9096565B2, “Inhibitors of histone deacetylase” (MethylGene Inc., priority 2007, dated 2015).

target: one or more of HDAC-4, HDAC-5, HDAC-6, HDAC-7, HDAC-8, HDAC-9, HDAC-10 and HDAC-11; experiment: Inhibition of histone deacetylase enzymatic activity (summary statement over isoforms); assay type: biochemical; conditions: Table 3, selected examples; HDAC isoform not given
Summary of the method: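 Activity was measured as deacetylation of the fluorogenic substrate Boc-Lys(trifluoroacetyl)-AMC over 20-30 min at 37 °C, after a 5 min room-temperature preincubation of enzyme with compound. Trypsin (1 mg/mL) with a reference HDAC inhibitor ended the reaction.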

Structure (SMILES)	IC50
O=C(NO)C(c1ccccc1)c1cccc(OCCCc2ccccc2)c1 (stereo not shown) [Compound 3-36, N-hydroxy-2-phenyl-2-(3-(3-phenylpropoxy)phenyl)acetamide]	< 1000 nM
COc1ccc(C(C(=O)NO)c2ccccc2)cc1 (stereo not shown) [Compound 3-43, N-hydroxy-2-(4-methoxyphenyl)-2-phenylacetamide]	< 1000 nM
CCOc1ccc(C(C(=O)NO)c2ccccc2)cc1 (stereo not shown) [Compound 3-44, 2-(4-ethoxyphenyl)-N-hydroxy-2-phenylacetamide]	< 1000 nM
C#CCOc1ccc(C(C(=O)NO)c2ccccc2)cc1 (stereo not shown) [Compound 3-45, N-hydroxy-2-phenyl-2-(4-(prop-2-ynyloxy)phenyl)acetamide]	< 1000 nM
CC(C)Oc1ccc(C(C(=O)NO)c2ccccc2)cc1 (stereo not shown) [Compound 3-47, N-hydroxy-2-(4-isopropoxyphenyl)-2-phenylacetamide]	< 1000 nM
C=CCCOc1ccc(C(C(=O)NO)c2ccccc2)cc1 (stereo not shown) [Compound 3-49, 2-(4-(but-3-enyloxy)phenyl)-N-hydroxy-2-phenylacetamide]	< 1000 nM
CC(C)CCOc1ccc(C(C(=O)NO)c2ccccc2)cc1 (stereo not shown) [Compound 3-54, N-hydroxy-2-(4-(isopentyloxy)phenyl)-2-phenylacetamide]	1000 to 15000 nM
CCC(CC)COc1ccc(C(C(=O)NO)c2ccccc2)cc1 (stereo not shown) [Compound 3-55, 2-(4-(2-ethylbutoxy)phenyl)-N-hydroxy-2-phenylacetamide]	< 1000 nM
CC(C)CCCOc1ccc(C(C(=O)NO)c2ccccc2)cc1 (stereo not shown) [Compound 3-56, N-hydroxy-2-(4-(4-methylpentyloxy)phenyl)-2-phenylacetamide]	< 1000 nM
CC(Oc1ccc(C(C(=O)NO)c2ccccc2)cc1)c1ccccc1 (stereo not shown) [Compound 3-59, N-hydroxy-2-phenyl-2-(4-(1-phenylethoxy)phenyl)acetamide]	< 1000 nM
O=C(NO)C(c1ccccc1)c1ccc(OCc2ccccc2F)cc1 (stereo not shown) [Compound 3-60, 2-(4-(2-fluorobenzyloxy)phenyl)-N-hydroxy-2-phenylacetamide]	< 1000 nM
N#Cc1ccccc1COc1ccc(C(C(=O)NO)c2ccccc2)cc1 (stereo not shown) [Compound 3-61, 2-(4-(2-cyanobenzyloxy)phenyl)-N-hydroxy-2-phenylacetamide]	< 1000 nM
Cc1cc(C)cc(COc2ccc(C(C(=O)NO)c3ccccc3)cc2)c1 (stereo not shown) [Compound 3-62, 2-(4-(3,5-dimethylbenzyloxy)phenyl)-N-hydroxy-2-phenylacetamide]	< 1000 nM
O=C(NO)C(c1ccccc1)c1ccc(OCCOc2ccccc2)cc1 (stereo not shown) [Compound 3-64, N-hydroxy-2-(4-(2-phenoxyethoxy)phenyl)-2-phenylacetamide]	< 1000 nM
O=C(NO)C(c1ccccc1)c1ccc(OCc2ccccc2Cl)cc1 (stereo not shown) [Compound 3-65, 2-(4-(2-chlorobenzyloxy)phenyl)-N-hydroxy-2-phenylacetamide]	< 1000 nM
O=C(NO)C(c1ccccc1)c1ccc(OCc2ccc(F)cc2F)cc1 (stereo not shown) [Compound 3-67, 2-(4-(2,4-difluorobenzyloxy)phenyl)-N-hydroxy-2-phenylacetamide]	< 1000 nM
CC(C)(C)c1ccc(COc2ccc(C(C(=O)NO)c3ccccc3)cc2)cc1 (stereo not shown) [Compound 3-70, 2-(4-(4-tert-butylbenzyloxy)phenyl)-N-hydroxy-2-phenylacetamide]	< 1000 nM
O=C(NO)C(c1ccccc1)c1cccc(Nc2ccccc2)c1 (stereo not shown) [Compound 3-73, N-hydroxy-2-phenyl-2-(3-(phenylamino)phenyl)acetamide]	1000 to 15000 nM
O=C(NO)C(c1ccccc1)c1cccc(NCc2ccccn2)c1 (stereo not shown) [Compound 3-74, N-hydroxy-2-phenyl-2-(3-(pyridin-2-ylmethylamino)phenyl)acetamide]	< 1000 nM
O=C(NO)C(c1ccccc1)c1cccc(N2CCC(N3CCCC3)CC2)c1 (stereo not shown) [Compound 3-76, N-hydroxy-2-phenyl-2-(3-(4-(pyrrolidin-1-yl)piperidin-1-yl)phenyl)acetamide]	< 1000 nM
O=C(NO)C(c1ccccc1)c1ccc(NCc2ccccn2)cc1 (stereo not shown) [Compound 3-81, N-hydroxy-2-phenyl-2-(4-(pyridin-2-ylmethylamino)phenyl)acetamide]	< 1000 nM
CC(=O)N1CCN(c2ccc(C(C(=O)NO)c3ccccc3)cc2)CC1 (stereo not shown) [Compound 3-82, 2-(4-(4-acetylpiperazin-1-yl)phenyl)-N-hydroxy-2-phenylacetamide]	< 1000 nM
O=C(NO)C(c1ccccc1)c1ccc(N2CCC(N3CCCC3)CC2)cc1 (stereo not shown) [Compound 3-83, N-hydroxy-2-phenyl-2-(4-(4-(pyrrolidin-1-yl)piperidin-1-yl)phenyl)acetamide]	< 1000 nM
O=C(NO)C(c1ccccc1)c1ccc(OC/C=C/c2ccccc2)cc1 (stereo not shown) [Compound 3-85, (E)-2-(4-(cinnamyloxy)phenyl)-N-hydroxy-2-phenylacetamide]	< 1000 nM
O=C(NO)C(c1ccccc1)c1ccc(OCc2cccc(OC(F)(F)F)c2)cc1 (stereo not shown) [Compound 3-86, N-hydroxy-2-phenyl-2-(4-(3-(trifluoromethoxy)benzyloxy)phenyl)acetamide]	< 1000 nM
O=C(NO)C(c1ccccc1)c1cccc(OCc2cccc(OC(F)(F)F)c2)c1 (stereo not shown) [Compound 3-87, N-hydroxy-2-phenyl-2-(3-(3-(trifluoromethoxy)benzyloxy)phenyl)acetamide]	1000 to 15000 nM
CN(C)CCOc1cccc(C(C(=O)NO)c2ccccc2)c1 (stereo not shown) [Compound 3-88, 2-(3-(2-(dimethylamino)ethoxy)phenyl)-N-hydroxy-2-phenylacetamide]	1000 to 15000 nM
COCCOCCOc1ccc(C(C(=O)NO)c2ccccc2)cc1 (stereo not shown) [Compound 3-90, N-hydroxy-2-(4-(2-(2-methoxyethoxy)ethoxy)phenyl)-2-phenylacetamide]	< 1000 nM
O=C(NO)C(c1ccccc1)N1CCC(O)(c2ccccc2)CC1 (stereo not shown) [Compound 5-1, N-hydroxy-2-(4-hydroxy-4-phenylpiperidin-1-yl)-2-phenylacetamide]	< 1000 nM

Second part, the molecule after the results:

IC50	Structure (SMILES)
< 1000 nM	Cc1cc(C)cc(COc2cccc(C(C(=O)NO)c3ccccc3)c2)c1 (stereo not shown) [Compound 3-35, 2-(3-(3,5-dimethylbenzyloxy)phenyl)-N-hydroxy-2-phenylacetamide]
< 1000 nM	O=C(NO)C(c1ccccc1)c1cccc(OCc2cccc(C(F)(F)F)c2)c1 (stereo not shown) [Compound 3-42, N-hydroxy-2-phenyl-2-(3-(3-(trifluoromethyl)benzyloxy)phenyl)acetamide]
< 1000 nM	C=CCOc1ccc(C(C(=O)NO)c2ccccc2)cc1 (stereo not shown) [Compound 3-46, 2-(4-(allyloxy)phenyl)-N-hydroxy-2-phenylacetamide]
< 1000 nM	COCCOc1ccc(C(C(=O)NO)c2ccccc2)cc1 (stereo not shown) [Compound 3-50, N-hydroxy-2-(4-(2-methoxyethoxy)phenyl)-2-phenylacetamide]
< 1000 nM	Cc1noc(C)c1COc1ccc(C(C(=O)NO)c2ccccc2)cc1 (stereo not shown) [Compound 3-51, 2-(4-((3,5-dimethylisoxazol-4-yl)methoxy)phenyl)-N-hydroxy-2-phenylacetamide]
< 1000 nM	CC(C)=CCOc1ccc(C(C(=O)NO)c2ccccc2)cc1 (stereo not shown) [Compound 3-52, N-hydroxy-2-(4-(3-methylbut-2-enyloxy)phenyl)-2-phenylacetamide]
< 1000 nM	O=C(NO)C(c1ccccc1)c1ccc(OC2CCCC2)cc1 (stereo not shown) [Compound 3-53, 2-(4-(cyclopentyloxy)phenyl)-N-hydroxy-2-phenylacetamide]
< 1000 nM	O=C(NO)C(c1ccccc1)c1ccc(OCC2CCCCC2)cc1 (stereo not shown) [Compound 3-57, 2-(4-(cyclohexylmethoxy)phenyl)-N-hydroxy-2-phenylacetamide]
< 1000 nM	Cc1cccc(COc2ccc(C(C(=O)NO)c3ccccc3)cc2)c1 (stereo not shown) [Compound 3-58, N-hydroxy-2-(4-(3-methylbenzyloxy)phenyl)-2-phenylacetamide]
< 1000 nM	O=C(NO)C(c1ccccc1)c1ccc(OCc2cccc(Cl)c2)cc1 (stereo not shown) [Compound 3-66, 2-(4-(3-chlorobenzyloxy)phenyl)-N-hydroxy-2-phenylacetamide]
< 1000 nM	O=C(NO)C(c1ccccc1)c1ccc(OCCOCc2ccccc2)cc1 (stereo not shown) [Compound 3-68, 2-(4-(2-(benzyloxy)ethoxy)phenyl)-N-hydroxy-2-phenylacetamide]
< 1000 nM	O=C(NO)C(c1ccccc1)c1ccc(OCCOc2ccc(F)cc2)cc1 (stereo not shown) [Compound 3-69, 2-(4-(2-(4-fluorophenoxy)ethoxy)phenyl)-N-hydroxy-2-phenylacetamide]
< 1000 nM	O=C(NO)C(c1ccccc1)c1ccc(OCc2cccc(C(F)(F)F)c2)cc1 (stereo not shown) [Compound 3-71, N-hydroxy-2-phenyl-2-(4-(3-(trifluoromethyl)benzyloxy)phenyl)acetamide]
1000 to 15000 nM	CC(C)Nc1cccc(C(C(=O)NO)c2ccccc2)c1 (stereo not shown) [Compound 3-72, N-hydroxy-2-(3-(isopropylamino)phenyl)-2-phenylacetamide]
< 1000 nM	CC(=O)N1CCN(c2cccc(C(C(=O)NO)c3ccccc3)c2)CC1 (stereo not shown) [Compound 3-75, 2-(3-(4-acetylpiperazin-1-yl)phenyl)-N-hydroxy-2-phenylacetamide]
1000 to 15000 nM	O=C(NO)C(c1ccccc1)c1cccc(N2CCN(c3ccc(F)cc3)CC2)c1 (stereo not shown) [Compound 3-78, 2-(3-(4-(4-fluorophenyl)piperazin-1-yl)phenyl)-N-hydroxy-2-phenylacetamide]
< 1000 nM	CC(C)Nc1ccc(C(C(=O)NO)c2ccccc2)cc1 (stereo not shown) [Compound 3-79, N-hydroxy-2-(4-(isopropylamino)phenyl)-2-phenylacetamide]
< 1000 nM	O=C(NO)C(c1ccccc1)c1ccc(Nc2ccccc2)cc1 (stereo not shown) [Compound 3-80, N-hydroxy-2-phenyl-2-(4-(phenylamino)phenyl)acetamide]
< 1000 nM	O=C(NO)C(c1ccccc1)c1ccc(N2CCN(c3ccc(F)cc3)CC2)cc1 (stereo not shown) [Compound 3-84, 2-(4-(4-(4-fluorophenyl)piperazin-1-yl)phenyl)-N-hydroxy-2-phenylacetamide]
< 1000 nM	COCCOCCOc1cccc(C(C(=O)NO)c2ccccc2)c1 (stereo not shown) [Compound 3-89, N-hydroxy-2-(3-(2-(2-methoxyethoxy)ethoxy)phenyl)-2-phenylacetamide]
